Columns and labels:
[1] = target: T1, recombinant human Casp2 (Homo sapiens, UniProt P42575); assay: Enzyme mechanistic studies (Ki, k3, k3/KI), Caspase-2; type: biochemical; details: irreversible inhibitors, progress curve method
T1 sequence (P42575 170-325 limits assumed): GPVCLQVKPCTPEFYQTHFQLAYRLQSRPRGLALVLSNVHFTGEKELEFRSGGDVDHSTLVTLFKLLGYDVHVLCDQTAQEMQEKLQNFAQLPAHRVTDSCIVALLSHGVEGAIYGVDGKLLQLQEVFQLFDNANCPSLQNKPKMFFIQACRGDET
T1 sequence (P42575 348-452 limits assumed): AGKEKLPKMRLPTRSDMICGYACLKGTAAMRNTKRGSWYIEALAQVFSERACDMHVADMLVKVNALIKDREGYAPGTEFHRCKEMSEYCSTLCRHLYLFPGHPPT
Experimental: (§1) For reversible inhibitors, the mechanisms of inhibition were determined by varying substrate and inhibitor concentrations and using Lineweaver−Burk representations to determine the inhibition constants Ki of competitive inhibitors (Ki = [E][I]/[EI]). For suicide inhibitors, inactivation can be represented by the minimum kinetic scheme (Eq. 2), where E and I are the free forms of enzyme and inhibitor, E * I a kinetic chimera of the Michaelis complex and E − I the covalent complex (inactivated enzyme).2 E+I⇄KIE*I→k3E−I
(§2) KI and k3 are the kinetic constants characterizing the inactivation process and the k3/KI ratio is an index of the inhibitory potency. The first-order rate constant, k3, and the apparent dissociation constant, KI, were determined for Caspase-2 and -3 using the progress curve method. Briefly, the enzyme activities were measured continuously for 120 min. To determine the kinetic parameters, progress curves were obtained at several inhibition concentrations using fixed substrate concentration. The product released for each inhibitor concentration was plotted versus the time following Eq. 3 where the constant π depended on [I]’, a modified inhibitor concentration due to substrate competition, according to Eq. 4. [I]’ is defined by Eq. 5, where KM was Michaelis constant for the enzymatic hydrolysis of the appropriate fluorogenic substrate. The ratio k3/KI was obtained by fitting the experimental data to the equations (F.U., fluorescence unit):3 F.U.=∫0tvidt+F.U0−vo×e^−π×t/π+F.U.0 4 π=k3×[I]^′/KI+[I]^′ 5 [I]^′=[I]/1+S/KM
Linear and nonlinear regression fits of the experimental data to the equations were performed with KaleidaGraph software. The experimental conditions were [Caspase-2]0 = 0.2 nM, [Ac-VDVAD-AMC]0 = 25 µM and [Caspase-3]0 = 0.1 nM, [Ac-DEVD-AMC]0 = 10 µM; [I]0 = 0–100 µM.

[2] = design: method as in PMID 21881605; details: cited from earlier work
[3] = target: T2, recombinant human Casp3 (Homo sapiens, UniProt P42574); assay: Enzyme mechanistic studies (Ki, k3, k3/KI), Caspase-3; type: biochemical; details: irreversible inhibitors, progress curve method
T2 sequence (P42574 29-175 limits assumed): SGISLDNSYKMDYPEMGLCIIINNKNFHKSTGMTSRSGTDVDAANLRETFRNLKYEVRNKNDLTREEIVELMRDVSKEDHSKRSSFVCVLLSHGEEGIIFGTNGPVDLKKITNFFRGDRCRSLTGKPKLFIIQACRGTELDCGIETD
T2 sequence (P42574 176-277 limits assumed): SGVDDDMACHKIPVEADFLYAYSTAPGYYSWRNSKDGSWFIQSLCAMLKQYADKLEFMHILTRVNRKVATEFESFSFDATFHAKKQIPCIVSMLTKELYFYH
Experimental: as §1, §2
Linear and nonlinear regression fits of the experimental data to the equations were performed with KaleidaGraph software.

[4] = test system: Molt4 lymphoid human cells; assay: Panobistat (LBH589)-induced cell death in Molt4 cells (propidium iodide, flow cytometry); type: cell-based; details: Molt4, 1 h pretreatment (30 µM or indicated doses), 25 nM LBH589 24 h
Experimental: (§3) HeLa cells (obtained from ATCC) were cultured in Dulbecco’s Modified Eagle Medium (DMEM, High Glucose, GlutaMAX™, Pyruvate) supplemented with antibiotics and 10% fetal calf serum (FCS) (Gibco, Life Technologies) and maintained in T75 Flasks at 1 × 10^6 cells per flask. Twenty-four hours before treatments, HeLa cells were transferred to 6-well plates (8 × 10^4 cells/well). The lymphoblastoid cell line Molt4cl8 was a gift from Dr. Bernard Krust (Inserm, University Paris 5) and was cultured in RPMI 1640 Glutamax medium supplemented with Hepes, antibiotics, and 10% FCS. HEK293 cells were obtained from ATCC (CRL-1573) and cultured in DMEM with Glutamax and 25 mM glucose (Life Technologies) supplemented with 10% FCS and antibiotics. For cell death induction, the following agents were added to cell cultures: Vincristine (Sigma) and Panobistat (LBH589; Selleck). Cell death was analyzed using fluorescence microscopy (Axio-observer Z1, Zeiss; equipped with CCD camera CoolsnapHQ2, Ropert Scientific) and cytofluorometry (MACSQuant® VYB; Miltenyi Biotec, Bergisch Gladbach, Germany) after labeling with propidium iodide (1 µg/mL; 10 min; 37 °C; Life Technologies) and Hoechst 33342 (1 µg/mL; 5 min; RT; Sigma).
Fig. 5 LJ2 inhibits cell death induced by microtubule destabilization and hydroxamic acid-based deacetylase (HDAC) inhibition. a Effect of the irreversible Caspase-2 inhibitors LJ2 against vincristine-induced cell death. HeLa cells were pretreated for 1 h with the indicated doses of LJ2, Q-VD-OPh, or Q-LETD-OPh, then treated with vincristine (VCR) as in Fig. 2, then incubated with propidium iodide at 2 μg/mL for 10 min and analyzed by flow cytometry. […] Molt4 lymphoid human cells where were pretreated for 1 h with 30 µM of LJ2, Q-VD-OPh, or Belnacasan (VX-765), then treated for 24 h with 25 nM of LBH589, then incubated with propidium iodide as in (a) and analyzed by flow cytometry. […] Molt4 cells were treated as in (b) with the indicated doses of LJ2 or Q-VD-OPh and analyzed by flow cytometry. […]

[5] = design: method as in PMID 31870950, PMID 31887369; details: cited from earlier work
[6] = test system: HeLa cells; assay: Vincristine-induced HeLa cell death (propidium iodide, flow cytometry); type: cell-based, human; details: 1 h pretreatment, 20 nM vincristine 44 h
Experimental: as §3
Fig. 2 q33 and h33 are protective against the cytocidal effect of Vincristine. a Vincristine induces HeLa cell death. Cells were incubated for 44 h at 37 °C with 20 nM Vincristine (VCR), then incubated with propidium iodide at 2 μg/mL for 10 min and analyzed by flow cytometry to quantify plasma membrane permeabilization. Histograms show fluorescence intensity detected by flow cytometry (one representative experiment) in the presence (VCR) or Absence (Co.) of Vincristine. % of propidium iodide-positive cells are indicated for both conditions. b Dose–response of Vincristine-induced cell death. HeLa cells were incubated and treated as in (a) with the indicated doses of Vincristine (VCR) and analyzed by flow cytometry. […] Representative fluorescence microscopy micrographs of cells treated for 44 h with 20 nM vincristine (VCR) or not (Co.) and stained with Hoechst 33342. Vincristine induces progressive nuclear changes with first condensed nuclei (arrows) and then apoptotic bodies (dashed arrow). d Broad-spectrum irreversible caspase inhibitors prevent vincristine-induced cell death. HeLa cells were pretreated for 1 hr with the indicated broad-spectrum irreversible caspases inhibitors (z-VAD(OMe)-fmk at 30 μM, Q-VD-OPh 30 μM, Emricasan 10 μM, or the negative control Q-VE-OPh 30 μM), then treated with vincristine as in panel (a), and analyzed by flow cytometry. Histograms show the mean ± SD of 3 independent experiments (***p value < 0.001). e Effect of the reversible Caspase-2 inhibitors q33 and h33 against vincristine-induced cell death. HeLa cells were pretreated for 1 h with the indicated doses of q33 or h33, then treated with vincristine as in panel a, and analyzed by flow cytometry. Histograms show the mean ± SD of three independent experiments (*p value < 0.1). TEXT PRINTED IN THE PICTURE: (a) VCR: 39,5 % DOUBTS OF THE COPYIST ABOUT THIS PICTURE: Panel a: the picture prints no measure beside "39,5 %" and "4.1%". I assigned 39,5 % to VCR only because it stands by the grey VCR peak. / Panel a: "4.1%" seems to belong to the untreated control (Co.). That is not a substance, so it is left out.
Fig. 5 LJ2 inhibits cell death induced by microtubule destabilization and hydroxamic acid-based deacetylase (HDAC) inhibition. a Effect of the irreversible Caspase-2 inhibitors LJ2 against vincristine-induced cell death. HeLa cells were pretreated for 1 h with the indicated doses of LJ2, Q-VD-OPh, or Q-LETD-OPh, then treated with vincristine (VCR) as in Fig. 2, then incubated with propidium iodide at 2 μg/mL for 10 min and analyzed by flow cytometry. Histogram data are mean ± SD (n = 3, *p value < 0.01). b Effect of Caspases-inhibitors against Panobistat (LBH589)-induced cell death. […]

For `COC(=O)CC(NC(=O)[C@H](C)NC(=O)C(NC(=O)[C@H](CC(=O)OC)NC(=O)[C@@H](NC(=O)c1ccc2ccccc2n1)C(C)C)C(C)C)C(=O)COc1c(F)cccc1F` (stereo in doubt) [TRP601, Quinolin-2-carbonyl-VD(OMe)VAD(OMe)-CH2-O(2,6F2)Ph, reference compound], the “Casp2 k3” value [1] is listed as 5,56 ms^−1, the KI (inactivation) [1] is listed as 378 nM and the neuroprotection ([2]; after intraperitoneal and intraveinous administration) is listed as “confer neuroprotection”. The “Casp2 in the brain” value [2] was “inhibit Casp2 in the brain”, the “toxicity in regulatory rodent and non-rodent studies” value [2] was “non-toxic” and the “Casp3 k3” value [3] was 4,24 ms^−1. The “Casp3 k3/KI” value [3] was 25 126 M^−1 s^−1 and the KI (inactivation) [3] was 209 nM.

In the case of `CCO[C@@H]1OC(=O)C[C@@H]1NC(=O)[C@@H]1CCCN1C(=O)[C@@H](NC(=O)c1ccc(N)c(Cl)c1)C(C)(C)C` [Belnacasan, (S)-1-((S)-2-{[1-(4-amino-3-chloro-phenyl)-methanoyl]-amino}-3,3-dimethyl-butanoyl)-pyrrolidine-2-carboxylic acid ((2R,3S)-2-ethoxy-5-oxo-tetrahydro-furan-3-yl)-amide], the “effect against Panobistat (LBH589)-induced cell death” value [4] is reported as “did not affect cell death”.

For `C[C@H](NC(=O)C(=O)Nc1ccccc1C(C)(C)C)C(=O)N[C@@H](CC(=O)O)C(=O)COc1c(F)c(F)cc(F)c1F` [Emricasan], the “efficacy in large clinical phase 3 studies for the treatment of NASH” value [5] is given as “failed to demonstrate efficacy”, the “toxicity on chronic administration in humans” value [5] is given as “not toxic nor carcinogenic” and the inhibition at 10 µM ([6]; Homo sapiens, inhibitor 10 µM) is given as 95%.

In the case of `CC(C)[C@H](NC(=O)c1ccc2ccccc2n1)C(=O)N[C@@H](CC(=O)O)C(=O)COc1c(F)cccc1F` [Q-VD-OPh], the “inhibition of vincristine-induced cell death” value ([6]; inhibitor 30 µM) is reported as > 90% and the “effect against Panobistat (LBH589)-induced cell death” value [4] is reported as “strongly inhibited cell death”.

From article PMC9666555, “Genuine selective caspase-2 inhibition with new irreversible small peptidomimetics” (Cell Death & Disease, 2022)
